Measurements from paper PMC6688997 (Nature Communications, 2019).

Columns and labels:
Assay in all cases: Kinase assay, 1 mM ATP
Format in all cases: biochemical
AKT1 = AKT1 (Homo sapiens, UniProt P31749)
Experimental: (§1) An off-chip mobility shift assay was performed by Carna Biosciences, Inc. (Kobe, Japan), according to their product instructions. […] The IC50 values were estimated according to the four-parameter logistic model.

BLK = BLK (Homo sapiens, UniProt P51451)
Experimental: as §1

BRSK1 = BRSK1 (Homo sapiens, UniProt Q8TDC3)
Experimental: as §1

CDC2/CycB1 = CDC2/CycB1 (Homo sapiens, UniProt P06493)
Experimental: as §1

CDK2/CycA2 = CDK2/CycA2 (Homo sapiens, UniProt P24941)
Experimental: as §1

CDK3/CycE1 = CDK3/CycE1 (Homo sapiens, UniProt Q00526)
Experimental: as §1

CDK5/p25 = CDK5/p25 (Homo sapiens, UniProt Q00535)
Chain of CDK5/p25 (Q00535 whole entry): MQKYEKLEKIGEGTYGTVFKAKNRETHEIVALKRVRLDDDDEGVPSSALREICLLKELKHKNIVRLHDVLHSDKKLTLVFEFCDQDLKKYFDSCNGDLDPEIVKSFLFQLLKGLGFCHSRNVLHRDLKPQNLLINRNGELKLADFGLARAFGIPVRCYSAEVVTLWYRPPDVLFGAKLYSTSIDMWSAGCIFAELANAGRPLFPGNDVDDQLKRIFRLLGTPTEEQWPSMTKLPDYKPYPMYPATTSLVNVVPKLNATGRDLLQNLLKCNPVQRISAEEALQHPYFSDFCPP
Chain of CDK5/p25 (Q15078 99-307 partner limits assumed): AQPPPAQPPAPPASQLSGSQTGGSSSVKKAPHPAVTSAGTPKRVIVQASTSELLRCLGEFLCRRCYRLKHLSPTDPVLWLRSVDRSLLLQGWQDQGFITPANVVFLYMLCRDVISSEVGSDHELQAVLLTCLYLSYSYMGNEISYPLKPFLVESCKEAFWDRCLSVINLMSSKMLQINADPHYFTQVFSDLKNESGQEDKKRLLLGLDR
Experimental: as §1

CDK7/CycH/MAT1 = CDK7/CycH/MAT1 (Homo sapiens, UniProt P50613)
Experimental: as §1

DYRK1B = DYRK1B (Homo sapiens, UniProt Q9Y463)
Chain of DYRK1B (Q9Y463 whole entry): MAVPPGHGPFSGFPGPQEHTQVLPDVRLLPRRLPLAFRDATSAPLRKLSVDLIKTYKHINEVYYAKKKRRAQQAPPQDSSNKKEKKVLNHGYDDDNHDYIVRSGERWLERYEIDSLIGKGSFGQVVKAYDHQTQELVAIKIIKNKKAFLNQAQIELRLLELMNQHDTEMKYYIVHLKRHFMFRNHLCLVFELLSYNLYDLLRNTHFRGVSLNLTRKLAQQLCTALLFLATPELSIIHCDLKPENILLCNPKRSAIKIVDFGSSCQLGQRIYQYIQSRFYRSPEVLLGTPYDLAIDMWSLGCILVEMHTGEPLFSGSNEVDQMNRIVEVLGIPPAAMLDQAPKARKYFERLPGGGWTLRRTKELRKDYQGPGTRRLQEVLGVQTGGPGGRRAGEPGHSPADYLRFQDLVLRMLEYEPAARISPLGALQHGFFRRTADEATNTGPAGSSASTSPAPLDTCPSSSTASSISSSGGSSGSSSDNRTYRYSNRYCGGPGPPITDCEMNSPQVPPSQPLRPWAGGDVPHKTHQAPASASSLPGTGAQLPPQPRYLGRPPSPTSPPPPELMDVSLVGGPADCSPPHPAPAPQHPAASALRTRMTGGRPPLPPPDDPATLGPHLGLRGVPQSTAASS
Experimental: as §1

EGFR = EGFR (Homo sapiens, UniProt P00533)
Experimental: as §1

EGFR(L858R) = biological target: T1, EGFR(L858R) (Homo sapiens, UniProt P00533, L858R)
T1 construct: purchased Carna Biosciences
Experimental: as §1

EGFR(d746-750/T790M) = biological target: T2, EGFR(d746-750/T790M) (Homo sapiens, UniProt P00533, DEL746-750/T790M)
T2 construct: purchased Carna Biosciences
Experimental: as §1

EPHA1 = EPHA1 (Homo sapiens, UniProt P21709)
Experimental: as §1

EPHB1 = EPHB1 (Homo sapiens, UniProt P54762)
Experimental: as §1

EPHB3 = EPHB3 (Homo sapiens, UniProt P54753)
Experimental: as §1

FES = FES (Homo sapiens, UniProt P07332)
Chain of FES (P07332 whole entry): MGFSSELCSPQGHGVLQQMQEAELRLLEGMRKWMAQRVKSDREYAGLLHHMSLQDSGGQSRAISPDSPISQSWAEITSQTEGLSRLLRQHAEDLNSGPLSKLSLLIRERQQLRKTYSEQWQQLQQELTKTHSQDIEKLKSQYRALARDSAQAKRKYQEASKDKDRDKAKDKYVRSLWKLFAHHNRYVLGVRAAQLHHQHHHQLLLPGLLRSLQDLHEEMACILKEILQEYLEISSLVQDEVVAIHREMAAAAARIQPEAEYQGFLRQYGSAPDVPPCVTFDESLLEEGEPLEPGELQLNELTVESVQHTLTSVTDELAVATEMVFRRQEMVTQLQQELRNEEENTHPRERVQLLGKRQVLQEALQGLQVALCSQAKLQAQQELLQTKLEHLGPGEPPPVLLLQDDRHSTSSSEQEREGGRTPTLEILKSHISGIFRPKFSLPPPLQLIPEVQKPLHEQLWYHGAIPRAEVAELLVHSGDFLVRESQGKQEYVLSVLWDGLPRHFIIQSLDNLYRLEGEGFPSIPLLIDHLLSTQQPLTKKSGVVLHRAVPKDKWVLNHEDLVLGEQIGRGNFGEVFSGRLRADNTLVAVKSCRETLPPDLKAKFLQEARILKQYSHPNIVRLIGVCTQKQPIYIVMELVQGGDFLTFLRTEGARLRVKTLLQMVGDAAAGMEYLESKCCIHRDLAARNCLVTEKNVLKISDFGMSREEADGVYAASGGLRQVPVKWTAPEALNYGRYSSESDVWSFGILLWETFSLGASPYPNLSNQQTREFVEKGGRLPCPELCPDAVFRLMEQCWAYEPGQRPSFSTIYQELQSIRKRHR
Experimental: as §1

FGFR1 = biological target: T3, FGFR1 (Homo sapiens, UniProt P11362)
T3 construct: purchased Carna Biosciences
Experimental: as §1

FGR = FGR (Homo sapiens, UniProt P09769)
Experimental: as §1

FLT4 = biological target: T4, FLT4 (Homo sapiens, UniProt P35916)
T4 construct: purchased Carna Biosciences
Experimental: as §1

HGK = biological target: T5, HGK (Homo sapiens, UniProt O95819)
T5 construct: purchased Carna Biosciences
Experimental: as §1

HIPK4 = HIPK4 (Homo sapiens, UniProt Q8NE63)
Experimental: as §1

ITK = biological target: T6, ITK (Homo sapiens, UniProt Q08881)
T6 construct: purchased Carna Biosciences
T6 sequence (Q08881 whole entry): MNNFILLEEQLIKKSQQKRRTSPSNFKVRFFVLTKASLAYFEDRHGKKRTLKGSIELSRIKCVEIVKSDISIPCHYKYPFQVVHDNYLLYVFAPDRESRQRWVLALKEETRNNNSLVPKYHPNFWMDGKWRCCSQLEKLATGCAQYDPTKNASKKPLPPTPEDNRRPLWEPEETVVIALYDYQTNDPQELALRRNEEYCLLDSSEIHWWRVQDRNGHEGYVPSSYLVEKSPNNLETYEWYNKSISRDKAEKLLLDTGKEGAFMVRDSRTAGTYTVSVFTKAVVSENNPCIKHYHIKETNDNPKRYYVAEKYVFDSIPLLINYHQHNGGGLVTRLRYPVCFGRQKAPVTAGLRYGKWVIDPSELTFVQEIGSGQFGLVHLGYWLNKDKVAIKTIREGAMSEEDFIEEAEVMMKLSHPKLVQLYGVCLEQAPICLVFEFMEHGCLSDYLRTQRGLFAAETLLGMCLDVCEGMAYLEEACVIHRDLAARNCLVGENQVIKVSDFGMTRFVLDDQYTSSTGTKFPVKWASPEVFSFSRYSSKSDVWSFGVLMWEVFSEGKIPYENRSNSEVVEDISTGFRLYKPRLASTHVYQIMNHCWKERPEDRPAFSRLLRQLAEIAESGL
Experimental: as §1

JAK1 = biological target: T7, JAK1 (Homo sapiens, UniProt P23458)
T7 construct: purchased Carna Biosciences
Experimental: as §1

JNK3 = JNK3 (Homo sapiens, UniProt P53779)
Experimental: as §1

LYNa = LYNa (Homo sapiens, UniProt P07948)
Experimental: as §1

MAPKAPK2 = biological target: T8, MAPKAPK2 (Homo sapiens, UniProt P49137)
T8 construct: purchased Carna Biosciences
T8 sequence (P49137 whole entry): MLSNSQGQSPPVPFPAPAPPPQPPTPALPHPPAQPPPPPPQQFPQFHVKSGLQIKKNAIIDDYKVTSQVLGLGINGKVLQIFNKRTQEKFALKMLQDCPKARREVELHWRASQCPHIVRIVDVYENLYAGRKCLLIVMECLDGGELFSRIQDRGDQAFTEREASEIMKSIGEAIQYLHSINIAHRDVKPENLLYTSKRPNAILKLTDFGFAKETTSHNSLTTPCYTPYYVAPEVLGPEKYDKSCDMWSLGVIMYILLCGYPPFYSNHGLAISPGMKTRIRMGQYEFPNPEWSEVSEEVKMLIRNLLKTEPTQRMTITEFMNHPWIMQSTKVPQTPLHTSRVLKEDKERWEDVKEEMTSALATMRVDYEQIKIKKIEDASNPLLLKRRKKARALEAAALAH
Experimental: as §1

MST1 = MST1 (Homo sapiens, UniProt Q13043)
Experimental: as §1

PDK1 = PDK1 (Homo sapiens, UniProt O15530)
Chain of PDK1 (O15530 whole entry): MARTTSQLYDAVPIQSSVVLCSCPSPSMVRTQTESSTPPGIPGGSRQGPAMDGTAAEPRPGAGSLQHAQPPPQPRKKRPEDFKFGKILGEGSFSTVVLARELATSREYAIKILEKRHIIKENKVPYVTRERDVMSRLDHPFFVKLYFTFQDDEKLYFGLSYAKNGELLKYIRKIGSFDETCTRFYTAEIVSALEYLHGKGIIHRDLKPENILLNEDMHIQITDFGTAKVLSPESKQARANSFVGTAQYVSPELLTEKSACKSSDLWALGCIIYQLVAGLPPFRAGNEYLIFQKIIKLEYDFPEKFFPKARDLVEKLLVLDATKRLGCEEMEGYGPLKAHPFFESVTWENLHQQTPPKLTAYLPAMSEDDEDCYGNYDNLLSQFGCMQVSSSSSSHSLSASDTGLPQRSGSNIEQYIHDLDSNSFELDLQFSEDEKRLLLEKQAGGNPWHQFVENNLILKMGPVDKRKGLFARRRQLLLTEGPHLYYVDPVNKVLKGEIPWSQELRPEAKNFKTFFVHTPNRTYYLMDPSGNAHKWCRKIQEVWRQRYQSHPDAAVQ
Experimental: as §1

PKACα = PKACα (Homo sapiens, UniProt P17612)
Experimental: as §1

PKCα = PKCα (Homo sapiens, UniProt P17252)
Experimental: as §1

PLK1 = PLK1 (Homo sapiens, UniProt P53350)
Experimental: as §1

PLK3 = biological target: T9, PLK3 (Homo sapiens, UniProt Q9H4B4)
T9 construct: purchased Carna Biosciences
Experimental: as §1

PYK2 = biological target: T10, PYK2 (Homo sapiens, UniProt Q14289)
T10 construct: purchased Carna Biosciences
Experimental: as §1

QIK = QIK (Homo sapiens, UniProt Q9H0K1)
Experimental: as §1

RSK1 = biological target: T11, RSK1 (Homo sapiens, UniProt Q15418)
T11 construct: purchased Carna Biosciences
Experimental: as §1

TEC = biological target: T12, TEC (Homo sapiens, UniProt P42680)
T12 construct: purchased Carna Biosciences
Experimental: as §1

TNK1 = biological target: T13, TNK1 (Homo sapiens, UniProt Q13470)
T13 construct: purchased Carna Biosciences
T13 sequence (Q13470 whole entry): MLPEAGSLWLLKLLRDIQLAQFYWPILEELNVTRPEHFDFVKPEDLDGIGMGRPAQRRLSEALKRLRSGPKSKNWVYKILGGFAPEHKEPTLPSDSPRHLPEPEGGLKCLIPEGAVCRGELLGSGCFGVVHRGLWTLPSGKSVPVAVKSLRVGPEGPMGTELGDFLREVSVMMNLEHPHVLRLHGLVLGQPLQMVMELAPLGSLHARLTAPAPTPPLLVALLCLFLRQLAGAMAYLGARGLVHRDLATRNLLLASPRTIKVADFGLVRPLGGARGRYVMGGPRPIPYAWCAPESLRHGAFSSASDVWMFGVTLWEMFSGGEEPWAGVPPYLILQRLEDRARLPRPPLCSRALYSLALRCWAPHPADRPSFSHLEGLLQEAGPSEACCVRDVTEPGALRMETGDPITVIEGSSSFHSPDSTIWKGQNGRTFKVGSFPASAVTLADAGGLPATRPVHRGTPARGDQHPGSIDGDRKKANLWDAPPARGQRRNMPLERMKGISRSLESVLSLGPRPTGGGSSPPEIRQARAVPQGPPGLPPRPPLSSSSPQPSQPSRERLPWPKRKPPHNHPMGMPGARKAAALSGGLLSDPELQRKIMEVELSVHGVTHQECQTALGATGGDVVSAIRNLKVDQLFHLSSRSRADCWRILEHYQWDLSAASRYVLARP
Experimental: as §1

TYRO3 = biological target: T14, TYRO3 (Homo sapiens, UniProt Q06418)
T14 construct: purchased Carna Biosciences
Experimental: as §1

YES = YES (Homo sapiens, UniProt P07947)
Experimental: as §1

p38α = p38α (Homo sapiens, UniProt Q16539)
Experimental: as §1

p38γ = p38γ (Homo sapiens, UniProt P53778)
Experimental: as §1

skMLCK = skMLCK (Homo sapiens, UniProt Q9H1R3)
Experimental: as §1

`C[C@@H](N)COc1ccc(-c2cnc3ccc(N[C@H](C)c4cccc(F)c4)nn23)cc1.O=C(O)CCCCC(=O)O` [DS-6051b] showed an inhibition at 0.2 µM (AKT1) of -1.3%, an inhibition at 0.2 µM (BLK) of 0.178% and an inhibition at 0.2 µM (BRSK1) of -4.8%. It also gave an inhibition at 0.2 µM (CDC2/CycB1) of -6.7%, an inhibition at 0.2 µM (CDK2/CycA2) of 2.3% and an inhibition at 0.2 µM (CDK3/CycE1) of -1.2%. For the same molecule, the inhibition at 0.2 µM (CDK5/p25) was -7.4%, the inhibition at 0.2 µM (CDK7/CycH/MAT1) was -0.3% and the inhibition at 0.2 µM (DYRK1B) was -8.2%. For the same molecule, the inhibition at 0.2 µM (EGFR) was 3.7%, the inhibition at 0.2 µM (EGFR(L858R)) was 0.7% and the inhibition at 0.2 µM (EGFR(d746-750/T790M)) was -0.9%. The inhibition at 0.2 µM (EPHA1) was 4.8%, the inhibition at 0.2 µM (EPHB1) was -3.5% and the inhibition at 0.2 µM (EPHB3) was -0.7%. For the same molecule, the inhibition at 0.2 µM (FES) was 5.1%, the inhibition at 0.2 µM (FGFR1) was 3.4% and the inhibition at 0.2 µM (FGR) was 6.3%. The inhibition at 0.2 µM (FLT4) was -4.4%, the inhibition at 0.2 µM (HGK) was -8% and the inhibition at 0.2 µM (HIPK4) was -1.6%. It also gave an inhibition at 0.2 µM (ITK) of -2.5%, an inhibition at 0.2 µM (JAK1) of -2% and an inhibition at 0.2 µM (JNK3) of 0.655%. For the same molecule, the inhibition at 0.2 µM (LYNa) was 3.1%, the inhibition at 0.2 µM (MAPKAPK2) was -8.5% and the inhibition at 0.2 µM (MST1) was 11.5%. For the same molecule, the inhibition at 0.2 µM (PDK1) was -4.9%, the inhibition at 0.2 µM (PKACα) was -7% and the inhibition at 0.2 µM (PKCα) was 2%. The inhibition at 0.2 µM (PLK1) was -9.2%, the inhibition at 0.2 µM (PLK3) was -3.3% and the inhibition at 0.2 µM (PYK2) was 8.9%. For the same molecule, the inhibition at 0.2 µM (QIK) was -3.9%, the inhibition at 0.2 µM (RSK1) was 2.1% and the inhibition at 0.2 µM (TEC) was -1.2%. For the same molecule, the inhibition at 0.2 µM (TNK1) was 12.7%, the inhibition at 0.2 µM (TYRO3) was -1.2% and the inhibition at 0.2 µM (YES) was 9%. The inhibition at 0.2 µM (p38α) was -6.7%, the inhibition at 0.2 µM (p38γ) was 0.224% and the inhibition at 0.2 µM (skMLCK) was -7.1%.
